The values that follow come from patent US6770261B2, “Magnetic resonance imaging agents for the detection of physiological agents” (Research Corporation Technologies, priority 1995, dated 2004).

For data set [1] the following is noted: literature value used for comparison (Lauffer); cited from earlier work.
Data set [2] deals with T1, β-galactosidase (Escherichia coli, UniProt P00722). The following applies: for increase in signal (enhancement) in the presence of β-galactosidase: upon exposure to β-galactosidase.
Procedure: FIG. 9 depicts the change in T1 observed upon the β-galactosidase catalyzed cleavage of the galactopyranose residue (n=3). The first Column of each pair (1,3,5) represents the T1 of the galactose-DOTA complex and β-galactosidase mixture immediately after addition. The second column represents the T1 of the solution after a period of time in the presence of β-galactosidase. Each column is reported as a ratio to a control containing only the complex. Column 1 and 2: 2.0 mM Gd complex plus 1.7 uM β-galactosidase phosphate buffer (25 mM) pH 7.3. Column 3 and 4: 2.0 mM Gd plus 5.1 uM β-galactosidase phosphate buffer (25 mM) pH 7.3. Column 5 and 6: 2 mM Gd complex plus 5.1 uM heat inactivated β-galactosidase (10 minutes at 80 degrees) phosphate buffer (25 mM) pH 7.3. […] A minimal concentration of enzyme was used in these experiments to reduce potential effects of any contrast agent-enzyme interactions. T1 were carried out using a Bruker AMX 500 spectrometer at 26 degrees using a standard inversion-recovery sequence. The solution was placed in a 40 ul round bottomed NMR tube insert (Wilmad glass) and inserted into a tube containing d3-chloroform. A two dimensional data file was collected containing 16 different inversion delays with 8 scans each. The raw nmr data was processed (Felix, BIOSYM/Molecular Simulations, San Diego, Calif.) and the peak heights were fitted to an exponential rise to a max to obtain T1.
The effect of the enzymatic cleavage of the galactopyranose on the T1 of the complex was assessed using NMR spectroscopy.
The effect of the enzymatic cleavage of the galactopyranose unit from EGadMe and CarboxyMe on relaxation time T1 was determined by NMR spectroscopy at 500 MHz and 24° C. Various aqueous solutions of 0.5 mM EGadMe and CarboxyMe, respectively, were prepared, containing either: (a) no enzyme; (b) heat inactivated 5 μM β-galactosidase that was treated at 80° C. for 10 min; (c) 5 μM β-galactosidase where T1 was measured immediately after mixing; or (d) 5 μM β-galactosidase that was reacted with the complex for 3.5 days at 37° C.
The target in data set [3] is T1, β-galactosidase.
Source text: Characterization: The ability of β-galactosidase to remove the galactopyranosal blocking group from GadGal was examined by HPLC. The cleavage reaction was monitored using the distinct retention times of the complex and the complex without the galactopyranose residue.
A short description of data set [4]: Relaxivity R by NMR spectroscopy at 500 MHz. Also on record: unit not given here. The data set is classed as physicochemical.
On data set [5], the source says:
FIG. 16 depicts the relaxivity of the CalGad complex as a function of calcium ion concentration.
The effect of Ca2^+ on the relaxivity of the complex

The conditions of data set [6]: for T1: 0.4 mM. As to the method:
The effect of pH on the relaxivity of the complex
The T1 of the Gd3^+-complex (0.4 mM in the buffer containing 100 mM KC1, 10 mM MOPS, 2 mM K2H2EGTA or 2 mM K2CaEGTA) was measured under different pH.

The conditions of data set [7]: for T1: 0.4 mM, 1 mM K2H2EGTA. As to the method:
The effect of Mg^2+ on the relaxivity of the complex
The T1 of the Gd^3+-complex (0.4 mM in the buffer containing 132 mM KC1, 10 mM MOPS, 1 mM K2H2EGTA, pH 7.20) was measured.

Like-named read-outs stand apart in the source and are kept apart here.

T1 sequence (P00722 2-1024): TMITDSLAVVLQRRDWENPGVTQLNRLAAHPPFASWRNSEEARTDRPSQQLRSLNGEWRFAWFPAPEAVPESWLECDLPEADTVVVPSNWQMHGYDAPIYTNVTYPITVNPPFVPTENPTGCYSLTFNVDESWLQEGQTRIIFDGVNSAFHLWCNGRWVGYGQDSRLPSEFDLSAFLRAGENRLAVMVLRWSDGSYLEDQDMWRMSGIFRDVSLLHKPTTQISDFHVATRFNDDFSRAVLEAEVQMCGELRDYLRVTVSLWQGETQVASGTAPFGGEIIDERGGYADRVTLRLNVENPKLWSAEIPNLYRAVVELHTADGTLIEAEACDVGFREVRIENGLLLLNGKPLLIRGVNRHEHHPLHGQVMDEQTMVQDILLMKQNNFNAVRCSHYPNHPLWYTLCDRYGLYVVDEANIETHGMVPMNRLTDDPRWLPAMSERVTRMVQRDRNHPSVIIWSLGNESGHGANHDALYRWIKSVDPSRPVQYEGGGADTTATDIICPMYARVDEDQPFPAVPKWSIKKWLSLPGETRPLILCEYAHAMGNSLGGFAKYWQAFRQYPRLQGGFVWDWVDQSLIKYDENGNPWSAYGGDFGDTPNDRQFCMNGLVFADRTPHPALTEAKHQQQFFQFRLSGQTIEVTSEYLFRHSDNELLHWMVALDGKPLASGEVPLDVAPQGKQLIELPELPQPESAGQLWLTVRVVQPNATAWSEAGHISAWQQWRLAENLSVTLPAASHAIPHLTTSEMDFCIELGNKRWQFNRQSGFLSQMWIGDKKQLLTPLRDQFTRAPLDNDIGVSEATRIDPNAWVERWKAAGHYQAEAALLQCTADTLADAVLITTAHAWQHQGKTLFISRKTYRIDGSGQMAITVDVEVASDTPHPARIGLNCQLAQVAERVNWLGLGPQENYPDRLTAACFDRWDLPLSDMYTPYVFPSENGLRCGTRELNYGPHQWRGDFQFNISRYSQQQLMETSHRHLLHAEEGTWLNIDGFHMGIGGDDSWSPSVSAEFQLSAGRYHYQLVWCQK

`O=C([O-])CN1CCN(CC(=O)[O-])CCN(CC(=O)O)CCN(CC(=O)[O-])CC1.[Gd+3]` [Gd-DOTA]: the “q (number of coordinating water molecules)” value in data set [1] is 1.2.
In the case of “Do3a-hydroxyethyl-beta-galactose Gadolinium complex [GadGal]”, the “difference between measured T1 values in the presence and absence of β-galactosidase” value in data set [2] (2.0 mM Gd complex, 1.7 or 5.1 uM β-galactosidase, pH 7.3, 500 MHz) stood at 20%. Moreover, in data set [2] (control, heat inactivated β-galactosidase), the “change of solution T1 with heat inactivated enzyme” value is “no decrease”. The figures for the “increase in signal (enhancement) in the presence of β-galactosidase” value in data set [2] (listed as Example 1 compound) and in data set [2] (listed as galactose-DOTA structure of Example 1) were “roughly 20%” and around 20%, respectively. Also, the “cleavage of galactopyranose (HPLC traces)” value in data set [3] (incubated with β-galactosidase for 7 days, phosphate buffer pH 7.3) is recorded as “greater than 95%”. For the same compound, the “enzymatic processing of the complex (HPLC)” value in data set [3] (native vs heat-inactivated β-galactosidase) is “enzymatic processing of the complex by native but not heat-treated enzyme”. Moreover, in data set [4], the “relaxivity R” value was 1800.
As for `O=C([O-])CN1CCN(CCCOc2cccc(OCCOc3cccc(OCCCN4CCN(CC(=O)[O-])CCN(CC(=O)[O-])CCN(CC(=O)[O-])CC4)c3N(CC(=O)O)CC(=O)O)c2N(CC(=O)O)CC(=O)O)CCN(CC(=O)[O-])CCN(CC(=O)[O-])CC1.[Gd+3].[Gd+3]` [CalGad, Gd^3+-BAPTA-DO3A2], the entries for the “relaxivity R” value in data set [5] (in the absence of Ca^2+) and in data set [5] (in the presence of Ca^2+) were 3.03 mM⁻¹ s⁻¹ and 5.53 mM⁻¹ s⁻¹, respectively. In addition, the T1 is 390 ms in data set [6] (2 mM K2CaEGTA, pH 6.80); 393 ms in data set [6] (2 mM K2CaEGTA, pH 7.00); 394 ms in data set [6] (2 mM K2CaEGTA, pH 7.20); 397 ms in data set [6] (2 mM K2CaEGTA, pH 7.40); 600 ms in data set [6] (2 mM K2H2EGTA, pH 6.80); 605 ms in data set [6] (2 mM K2H2EGTA, pH 7.00). For the same compound, the T1 in data set [6] (2 mM K2H2EGTA, pH 7.20) stood at 604 ms; in data set [6] (2 mM K2H2EGTA, pH 7.40) it was 608 ms; in data set [7] (pH 7.20, Mg^2+ 0 mM), 607 ms; in data set [7] (pH 7.20, Mg^2+ 1 mM), 602 ms; in data set [7] (pH 7.20, Mg^2+ 2 mM), 601 ms; in data set [7] (pH 7.20, Mg^2+ 5 mM), 609 ms. The T1 in data set [7] (pH 7.20, Mg^2+ 10 mM) turned out to be 607 ms; in data set [7] (pH 7.20, Mg^2+ 20 mM), 610 ms. Besides, the “effect of changing pH on the relaxivity” value in data set [6] (pH 6.80 to 7.40, in the presence or absence of Ca^2+) is “minimum effects”. For the same compound, in data set [7] (Mg^2+ 0 to 20 mM), the “effect of changing Mg^2+ concentration on the relaxivity” value was “minimum effects”.
